Test results as given in patent publication US20230107642A1 (Erasca, Inc., priority 2020, published 2023).

Target: T1, Cys12 of the KRAS 4B G12C protein (Homo sapiens, UniProt P01116, G12C)
T1 construct: This protein contained 188 amino acids in total, including an N-terminal 6-Histidine tag; made in house; host or cells: E. coli BL21
Test: In vitro covalent adduct formation (CAF) assay, LC-MS intact mass
Type: binding
Settings: for % CAF 10 uM @ 60 min: 10 uM compound; for CAF (% after 1 hour): 10 μM compound
Summary of the method: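 Percent covalent modification from intact-mass LC-MS, by relative free versus adducted protein (adducts within 1 Da of expected mass). Reaction: 10 μM compound with 5 μM E. coli-expressed, GDP-exchanged KRAS 4B G12C in TBS pH 7.4, 4% DMSO, 1 h at 22° C.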

| SMILES | % CAF 10 uM @ 60 min (60 min) | other results |
| --- | --- | --- |
| C=CC(=O)N1CCN(c2nc(=O)n3c4c(c(-c5ccc(F)c(Cl)c5)c(C(F)(F)F)cc24)SC[C@@H](OCOC)C3)CC1 [Example 1007, (S)-8-(4-acryloylpiperazin-1-yl)-11-(3-chloro-4-fluorophenyl)-3-(methoxymethoxy)-10-(trifluoromethyl)-3,4-dihydro-2H,6H-[1,4]thiazepino[2,3,4-ij]quinazolin-6-one] | – | CAF (% binding after 60 min): 97% |
| C=CC(=O)N1[C@H](C)CN(c2nc(=O)n3c4c(c(-c5cc(Cl)c(F)cc5F)c(C(F)(F)F)cc24)SCC2(CN(CC(F)(F)F)C2)C3)C[C@@H]1C [Example 1241, 8′-((3S,5R)-4-acryloyl-3,5-dimethylpiperazin-1-yl)-11′-(5-chloro-2,4-difluorophenyl)-1-(2,2,2-trifluoroethyl)-10′-(trifluoromethyl)-2′H,4′H,6′H-spiro[azetidine-3,3′-[1,4]thiazepino[2,3,4-ij]quinazolin]-6′-one] | – | CAF (% after 1 hour): 91% |
| C=CC(=O)N1[C@H](C)CN(c2nc(=O)n3c4c(c(-c5cc(Cl)c(F)cc5F)c(C(F)(F)F)cc24)SCC(COC)(COC)C3)C[C@@H]1C [Example 1410, 8-((3S,5R)-4-acryloyl-3,5-dimethylpiperazin-1-yl)-11-(5-chloro-2,4-difluorophenyl)-3,3-bis(methoxymethyl)-10-(trifluoromethyl)-3,4-dihydro-2H,6H-[1,4]thiazepino[2,3,4-ij]quinazolin-6-one] | 95.3% | – |
| C=CC(=O)N1CCN(c2nc(=O)n3c4c(c(-c5cc(Cl)c(F)cc5F)c(C(F)(F)F)cc24)SC[C@H](OCCOC)C3)CC1 [Example 1022, (3R)-8-(4-acryloylpiperazin-1-yl)-11-(5-chloro-2,4-difluorophenyl)-3-(2-methoxyethoxy)-10-(trifluoromethyl)-3,4-dihydro-2H,6H-[1,4]thiazepino[2,3,4-ij]quinazolin-6-one] | – | CAF (% binding after 60 min): 85% |
| C=CC(=O)N1[C@H](C)CN(c2nc(=O)n3c4c(c(-c5ccc(F)cc5F)c(C(F)(F)F)cc24)SC[C@@H]3CC)C[C@@H]1C [Example 1451, (3S)-7-((3S,5R)-4-acryloyl-3,5-dimethylpiperazin-1-yl)-10-(2,4-difluorophenyl)-3-ethyl-9-(trifluoromethyl)-2,3-dihydro-5H-[1,4]thiazino[2,3,4-ij]quinazolin-5-one] | 95% | – |
| C=C(F)C(=O)N1CCN(c2nc(=O)n3c4c(c(-c5ccc(F)cc5F)c(C(F)(F)F)cc24)SC[C@@H](OC)C3)CC1 [Example 1221, (3S)-11-(2,4-Difluorophenyl)-8-(4-(2-fluoroacryloyl)piperazin-1-yl)-3-methoxy-10-(trifluoromethyl)-3,4-dihydro-2H,6H-[1,4]thiazepino[2,3,4-ij]quinazolin-6-one] | – | CAF (% after 1 hour): 61% |
| C=CC(=O)N1[C@H](C)CN(c2nc(=O)n3c4c(c(-c5ccc(F)cc5C(N)=O)c(C(F)(F)F)cc24)SC[C@@H](OC)C3)C[C@@H]1C [Example 1235, 2-((3S)-8-((3S,5R)-4-acryloyl-3,5-dimethylpiperazin-1-yl)-3-methoxy-6-oxo-10-(trifluoromethyl)-3,4-dihydro-2H,6H-[1,4]thiazepino[2,3,4-ij]quinazolin-11-yl)-5-fluorobenzamide] | – | CAF (% after 1 hour): 69% |
| C=CC(=O)N1C[C@H](C)N(c2nc(=O)n3c4c(c(-c5cc(Cl)c(F)cc5F)c(C(F)(F)F)cc24)SCC2(COC2)C3)C[C@H]1C [Example 1357a] | 74.3% | – |
| C=CC(=O)N1CCN(c2nc(=O)n3c4c(c(-c5cc(Cl)c(F)cc5F)c(C(F)(F)F)cc24)SC[C@@H](OC)C3)[C@@H]2CS(=O)(=O)C[C@@H]21 [Example 1211, (3S)-8-((4aR,7aS)-4-acryloyl-6,6-dioxidohexahydrothieno[3,4-b]pyrazin-1(2H)-yl)-11-(5-chloro-2,4-difluorophenyl)-3-methoxy-10-(trifluoromethyl)-3,4-dihydro-2H,6H-[1,4]thiazepino[2,3,4-ij]quinazolin-6-one] | – | CAF (% after 1 hour): 97% |
| C=CC(=O)N1[C@H](C)CN(c2nc(=O)n3c4c(c(-c5cc(Cl)c(F)cc5F)c(C(F)(F)F)cc24)SC[C@@H](OCCN(CC)CC)C3)C[C@@H]1C [Example 1236, (3S)-8-((3S,5R)-4-acryloyl-3,5-dimethylpiperazin-1-yl)-11-(5-chloro-2,4-difluorophenyl)-3-(2-(diethylamino)ethoxy)-10-(trifluoromethyl)-3,4-dihydro-2H,6H-[1,4]thiazepino[2,3,4-ij]quinazolin-6-one] | – | CAF (% after 1 hour): 94% |
| C=CC(=O)N1[C@H](C)CN(c2nc(=O)n3c4c(c(-c5ccc(F)cc5F)c(C(F)(F)F)cc24)SC[C@@H]3C)C[C@@H]1C [Example 1427, (3S)-7-((3S,5R)-4-acryloyl-3,5-dimethylpiperazin-1-yl)-10-(2,4-difluorophenyl)-3-methyl-9-(trifluoromethyl)-2,3-dihydro-5H-[1,4]thiazino[2,3,4-ij]quinazolin-5-one] | 95% | – |
| C=CC(=O)N1[C@H](C)CN(c2nc(=O)n3c4c(c(-c5ccc(F)cc5)c(Cl)cc24)SC[C@@H](OC)C3)C[C@@H]1C [Example 1040, (S)-8-((3S,5R)-4-acryloyl-3,5-dimethylpiperazin-1-yl)-10-chloro-11-(4-fluorophenyl)-3-methoxy-3,4-dihydro-2H,6H-[1,4]thiazepino[2,3,4-ij]quinazolin-6-one] | – | CAF (% binding after 60 min): 96% |
| [2H]C([2H])=C([2H])C(=O)N1[C@H](C)CN(c2nc(=O)n3c4c(c(-c5cc(Cl)c(F)cc5F)c(C(F)(F)F)cc24)SC[C@@H]3COC)C[C@@H]1C (atropisomer, axis not shown) [Example 1392, (3S,10S)-7-((3S,5R)-4-(acryloyl-d3)-3,5-dimethylpiperazin-1-yl)-10-(5-chloro-2,4-difluorophenyl)-3-(methoxymethyl)-9-(trifluoromethyl)-2,3-dihydro-5H-[1,4]thiazino[2,3,4-ij]quinazolin-5-one] | 64.9% | – |
| C=CC(=O)N1CCN(c2nc(=O)n3c4c(c(-c5ccc(F)cc5)c(C(F)(F)F)cc24)SCC2(COC2)C3)CC1 [Example 1116, 8′-(4-acryloylpiperazin-1-yl)-11′-(4-fluorophenyl)-10′-(trifluoromethyl)-2′H,4′H,6′H-spiro[oxetane-3,3′-[1,4]thiazepino [2,3,4-ij]quinazolin]-6′-one] | – | % CAF 10 uM @ 60 min (60 min incubation): 98.4% |
| C=CC(=O)N1CCN(c2nc(=O)n3c4c(c(-c5ccc(F)c(Cl)c5)c(C(F)(F)F)cc24)SC[C@@H]3COCOC)CC1 [Example 1362, (S)-7-(4-acryloylpiperazin-1-yl)-10-(3-chloro-4-fluorophenyl)-3-((methoxymethoxy)methyl)-9-(trifluoromethyl)-2,3-dihydro-5H-[1,4]thiazino[2,3,4-ij]quinazolin-5-one] | 96.2% | – |

Second part, led by results:

| % CAF 10 uM @ 60 min (60 min) | SMILES | other results |
| --- | --- | --- |
| 71% | C=CC(=O)N1C[C@H](C)N(c2nc(=O)n3c4c(c(-c5ccc(F)c(Cl)c5)c(C(F)(F)F)cc24)SC[C@@H]3CN2CCN(C3CC3)CC2)C[C@H]1C [Example 1387, (S)-7-((2S,5R)-4-acryloyl-2,5-dimethylpiperazin-1-yl)-10-(3-chloro-4-fluorophenyl)-3-((4-cyclopropylpiperazin-1-yl)methyl)-9-(trifluoromethyl)-2,3-dihydro-5H-[1,4]thiazino[2,3,4-ij]quinazolin-5-one] | – |
| 82% | [2H]C([2H])=C([2H])C(=O)N1C[C@H](C)N(c2nc(=O)n3c4c(c(-c5cc(Cl)c(F)cc5F)c(C(F)(F)F)cc24)SCC2(COC2)C3)C[C@H]1C (atropisomer, axis not shown) [Example 1434, (R)-8′-((2S,5R)-4-(Acryloyl-d3)-2,5-dimethylpiperazin-1-yl)-11′-(5-chloro-2,4-difluorophenyl)-10′-(trifluoromethyl)-2′H,4′H,6′H-spiro[oxetane-3,3′-[1,4]thiazepino[2,3,4-ij]quinazolin]-6′-one] | – |
| 95.1% | [2H]C([2H])([2H])OC[C@H]1CSc2c(-c3ccc(F)cc3)c(C(F)(F)F)cc3c(N4C[C@@H](C)N(C(=O)C=C)[C@@H](C)C4)nc(=O)n1c23 [Example 1413, (S)-7-((3S,5R)-4-acryloyl-3,5-dimethylpiperazin-1-yl)-10-(4-fluorophenyl)-3-((methoxy-d3)methyl)-9-(trifluoromethyl)-2,3-dihydro-5H-[1,4]thiazino[2,3,4-ij]quinazolin-5-one] | – |
| 96% | C=CC(=O)N1C[C@H](C)N(c2nc(=O)n3c4c(c(-c5ccc(F)c(Cl)c5)c(C(F)(F)F)cc24)SCC2(COC2)C3)C[C@H]1C [Example 1354, 8′-((2S,5R)-4-acryloyl-2,5-dimethylpiperazin-1-yl)-11′-(3-chloro-4-fluorophenyl)-10′-(trifluoromethyl)-2′H,4′H,6′H-spiro[oxetane-3,3′-[1,4]thiazepino[2,3,4-ij]quinazolin]-6′-one] | – |
| 95.5% | C=CC(=O)N1CCN(c2nc(=O)n3c4c(c(-c5c(F)cccc5F)c(C(F)(F)F)cc24)SC[C@@H]3COC)CC1 [Example 1377, (S)-7-(4-acryloylpiperazin-1-yl)-10-(2,6-difluorophenyl)-3-(methoxymethyl)-9-(trifluoromethyl)-2,3-dihydro-5H-[1,4]thiazino[2,3,4-ij]quinazolin-5-one] | – |
| 75.9% | C=CC(=O)N1[C@H](C)CN(c2nc(=O)n3c4c(c(-c5c(F)ccc6cnn(C)c56)c(C(F)(F)F)cc24)SC[C@@H]3COC)C[C@@H]1C (atropisomer, axis not shown) [Example 1406, (3S,10R)-7-((3S,5R)-4-acryloyl-3,5-dimethylpiperazin-1-yl)-10-(6-fluoro-1-methyl-1H-indazol-7-yl)-3-(methoxymethyl)-9-(trifluoromethyl)-2,3-dihydro-5H-[1,4]thiazino[2,3,4-ij]quinazolin-5-one] | – |
